Marks after values point to notes of the source that are not given here.
Tests used:
[1] = test system: OAB Wet patients (subjects with a diagnosis of overactive bladder); experiment: Clinical Study 1: multicentre trial, diary record of urgency episodes and severity of urgency (VAS); format: in vivo, human; settings: for No of episodes of urgency/day, Median change from baseline / No of episodes of urgency/day, Median % Change from baseline: 12 weeks of treatment; for No of episodes of urgency/day, Median change from baseline: placebo −1.2; for No of episodes of urgency/day, Median % Change from baseline: placebo −15.7; for No of episodes of urgency/day, Median difference from placebo / Severity of urgency/day, Median difference from placebo: corrected for placebo; for No of episodes of urgency/day, Median difference from placebo / Severity of urgency/day, Median change from baseline / Severity of urgency/day, Median difference from placebo: 12 weeks; for Severity of urgency/day, Median change from baseline: visual analogue scale (mild to severe), placebo −3.9; for Severity of urgency/day, Median difference from placebo: visual analogue scale
Procedure: Two novel methods for the assessment of urgency were used. The first was for use in a large scale clinical trial, and the second was for use in clinical laboratory studies. In both of these studies, darifenacin was administered as its hydrobromide salt. It was presented in slow release matrix tablets of the type described in U.S. Pat. No. 6,106,864, particularly Example 3. Tablets were administered once daily (o.d.). In this study, OAB Wet patients recorded each episode of urgency per day and the overall severity of urgency for each day in a diary. The severity of urgency was recorded by the use of a visual analogue scale (VAS) where the anchor points were mild and severe. Darifenacin (as hydrobromide salt; 7.5 mg, 15 mg and 30 mg of the active moiety, o.d.) and placebo were evaluated in subjects with a diagnosis of overactive bladder in a multicentre trial and symptoms of urgency were assessed using the VAS at baseline and at the end of the study (12 weeks of treatment). 108 patients (14 male, 94 female) received 7.5 mg; 107 patients (15 male, 92 female) received 15 mg; 114 patients (16 male, 98 female) received 30 mg; and 108 patients (18 male, 90 female) received placebo.

[2] = test system: subjects with symptoms of urgency (mixture of OAB Wet and OAB Dry sufferers); experiment: Clinical Study 2: warning time between onset of urgency and need to micturate, measured with a modified stop-watch; format: in vivo, human
Procedure: Two novel methods for the assessment of urgency were used. The first was for use in a large scale clinical trial, and the second was for use in clinical laboratory studies. In both of these studies, darifenacin was administered as its hydrobromide salt. It was presented in slow release matrix tablets of the type described in U.S. Pat. No. 6,106,864, particularly Example 3. Tablets were administered once daily (o.d.). This study used a novel method for measuring the time between the first onset of the urgency and the need to micturate, which is known as the ‘warning time’. A modified stop-watch was used which required the subject to press a button at the onset of urge and a second button when they felt they needed to micturate. Darifenacin (as the hydrobromide salt; 30 mg o.d.) and placebo were evaluated in subjects with symptoms of urgency. The subjects were a mixture of OAB Wet and OAB Dry sufferers. The ‘warning time’ was assessed at baseline and following 2 weeks of treatment using the modified stop watch. 36 patients (29 female, 7 male) received darifenacin; and 36 patients (22 female, 14 male) received placebo.

[3] = 15 mg o.d., baseline 8.6, P < 0.05
[4] = 30 mg o.d., baseline 8.4, P < 0.001
[5] = 7.5-30 mg, effect significantly greater than that produced by placebo
[6] = 15 mg o.d., baseline 56.2, P < 0.05
[7] = 30 mg o.d., baseline 53.5, P < 0.05
[8] = 30 mg o.d., 2 weeks of treatment

**Q.** For NC(=O)C(c1ccccc1)(c1ccccc1)[C@@H]1CCN(CCc2ccc3c(c2)CCO3)C1 [Darifenacin, (S)-2-(1-[2-(2,3-dihydrobenzofuran-5-yl)ethyl]-3-pyrrolidinyl)-2,2-diphenyl-acetamide], which “No of episodes of urgency/day, Median change from baseline” value ([1]; 7.5 mg o.d., baseline 8.5) is on record?
**A.** −1.8 episodes of urgency/day

**Q.** What about the “No of episodes of urgency/day, Median % Change from baseline” value ([1]; 7.5 mg o.d.) of the same molecule?
**A.** −29.2%

**Q.** And the “No of episodes of urgency/day, Median change from baseline” value [1, 3]?
**A.** −2.3* episodes of urgency/day

**Q.** And the “No of episodes of urgency/day, Median % Change from baseline” value ([1]; 15 mg o.d.)?
**A.** −26.9%

**Q.** What about the “No of episodes of urgency/day, Median change from baseline” value [1, 4] of the same molecule?
**A.** −3*** episodes of urgency/day

**Q.** What about the “No of episodes of urgency/day, Median % Change from baseline” value ([1]; 30 mg o.d.) of the same molecule?
**A.** −33.1%

**Q.** What about the “Effect on number of episodes of urgency” value [1, 5] of the same molecule?
**A.** dose-related reduction

**Q.** What about the “Effect on overall severity of urgency” value [1, 5] of the same molecule?
**A.** dose-related reduction

**Q.** What about the “Effect on the symptom of urgency in subjects with overactive bladder (conclusion)” value ([1]; conclusion drawn from both clinical studies) of the same molecule?
**A.** clinically significant attenuation

**Q.** What about the “No of episodes of urgency/day, Median difference from placebo” value ([1]; 7.5 mg o.d., baseline 8.5) of the same molecule?
**A.** −0.5 episodes of urgency/day

**Q.** And the “No of episodes of urgency/day, Median difference from placebo” value [1, 3]?
**A.** −1.1* episodes of urgency/day

**Q.** What about the “No of episodes of urgency/day, Median difference from placebo” value [1, 4] of the same molecule?
**A.** −1.4*** episodes of urgency/day

**Q.** And the “Severity of urgency/day, Median change from baseline” value ([1]; 7.5 mg o.d., baseline 53.2)?
**A.** −7

**Q.** What about the “Severity of urgency/day, Median change from baseline” value [1, 6] of the same molecule?
**A.** −7*

**Q.** What about the “Severity of urgency/day, Median change from baseline” value [1, 7] of the same molecule?
**A.** −9.4*

**Q.** What about the “Severity of urgency/day, Median difference from placebo” value ([1]; 7.5 mg o.d., baseline 53.2) of the same molecule?
**A.** −2.5

**Q.** What about the “Severity of urgency/day, Median difference from placebo” value [1, 6] of the same molecule?
**A.** −3.8*

**Q.** What about the “Severity of urgency/day, Median difference from placebo” value [1, 7] of the same molecule?
**A.** −5.5*

**Q.** What about the “Effect on warning time compared with placebo” value [2, 8] of the same molecule?
**A.** significant increase

**Q.** And the “Warning time, Median difference from placebo” value [2, 8]?
**A.** 4.3 min

**Q.** What about the “Warning Time, Week 2 (Median)” value ([2]; 30 mg o.d., 2 weeks of treatment, baseline median 4.7, placebo week 2 4.1, P < 0.01) of the same molecule?
**A.** 8.4** Min

**Q.** What about the “Response of OAB Wet and OAB Dry subjects” value ([2]; both OAB Wet and OAB Dry subjects) of the same molecule?
**A.** responded to treatment
